The subject of the experiment is cholesterol absorption (uptake of 14C-cholesterol by the liver). Description: Cholesterol absorption test: uptake of 14C-cholesterol by the liver after peroral test meal. The following applies: dose at which uptake of 14C-cholesterol by the liver was halved (50%) vs control group, mouse. It is filed as in vivo, NMRI mice. From the text: Effect of the compounds of the invention on cholesterol absorption and 3H-taurocholic acid excretion using fecal excrement of mice, rats or hamsters
NMRI mice, Wistar rats, or Golden Syrian hamsters (in groups of n=4-6) were kept in metabolic cages, where they were fed with a standard diet (Altromin, Lage (Lippe)). The afternoon prior to the administration of the radioactive tracers (14C-cholesterol), the feed was removed and the animals were adapted to grates.
Additionally, the animals were labeled s.c. with 3H-TCA (taurocholic acid) (for example 1 μCi/mouse up to 5 μCi/rat) 24 hours prior to the peroral administration of the test meal (14C-cholesterol in Intralipid® 20, Pharmacia-Upjohn).
Cholesterol absorption test: 0.25 ml/mouse Intralipid®D 20 (Pharmacia-Upjohn) ((spiked with 0.25 μCi of 14C-cholesterol in 0.1 mg of cholesterol) was administered perorally by gavage.
Test substances were prepared separately in 0.5% methylcellulose (Sigma)/5% Solutol (BASF, Ludwigshafen) or a suitable vehicle.
The administration volume of the test substance was 0.5 ml/mouse. The test substance was administered immediately prior to the test meal (Intralipid labeled with 14C-cholesterol) (cholesterol absorption test).
The feces were collected over a period of 24 h. Fecal elimination of 14C-cholesterol and 3H-taurocholic acid (TCA) was determined after 24 hours.
The livers were removed and homogenized, and aliquots were incinerated in an oximate (Model 307, Packard) to determine the amount of 14C-cholesterol that had been taken up/absorbed.
The amount of-14C-cholesterol taken up by the liver was based on the administered dose. The ED50 values were interpolated from a dose-effect curve as the dose at which the uptake of 14C-cholesterol by the liver was halved (50%), based on a control group.

Consider `O=C1C(CCC(O)c2ccc(F)cc2)C(c2ccc(OCCCCNCCCCCCOP(=O)(O)O)cc2)N1c1ccc(F)cc1` (stereo not shown) [IV, Phosphoric acid mono{6-[4-(4-{1-(4-fluorophenyl)-3-[3-(4-fluorofluorophenyl)-3-hydroxypropyl]-4-oxoazetidin-2-yl}phenoxy)butylamino]hexyl}ester], for which the “ED50 (liver)” value is given as 0.3 mg/mouse.
Regarding `COc1ccc(C2C(CCC(O)c3ccc(F)cc3)C(=O)N2c2ccc(CNC(=O)CCCCCCCCCCC(=O)O)cc2)cc1` (stereo not shown) [XIII, 11-{4-[3-[3-(4-Fluorophenyl)-3-hydroxypropyl]-2-(4-methoxyphenyl)-4-oxoazetidin-1-yl]benzylcarbamoyl}undecanoic acid], the “ED50 (liver)” value was less than 0.1 mg/mouse.
As for `O=C(CS(=O)(=O)O)NCc1ccc(C2C(CCC(O)c3ccc(F)cc3)C(=O)N2c2ccc(F)cc2)cc1` (stereo not shown) [VIII, (4-{1-(4-Fluorophenyl)-3-[3-(4-fluorophenyl)-3-hydroxypropyl]-4-oxoazetidin-2-yl}benzylcarbamoyl)methanesulfonic acid], the “ED50 (liver)” value is given as 0.3 mg/mouse.
For `COc1ccc(C2C(CCC(O)c3ccc(F)cc3)C(=O)N2c2ccc(CNCCCCS(=O)(=O)O)cc2)cc1` (stereo not shown) [I, 4-{4-[3-[3-(4-Fluorophenyl)-3-hydroxypropyl]-2-(4-methoxyphenyl)-4-oxoazetidin-1-yl]benzylamino}butane-1-sulfonic acid], the “ED50 (liver)” value was found to be 1.0 mg/mouse.
Consider `COc1ccc(C2C(CCC(O)c3ccc(F)cc3)C(=O)N2c2ccc(CNC(=O)CS(=O)(=O)O)cc2)cc1` (stereo not shown) [IX, {4-[3-[3-(4-Fluorophenyl)-3-hydroxypropyl]-2-(4-methoxyphenyl)-4-oxoazetidin-1-yl]benzylcarbamoyl}methanesulfonic acid], for which the “ED50 (liver)” value was less than 1.0 mg/mouse.
The same measure for `O=C(O)CCC(=O)NCc1ccc(C2C(CCC(O)c3ccc(F)cc3)C(=O)N2c2ccc(F)cc2)cc1` (stereo not shown) [X, N-(4-{1-(4-Fluorophenyl)-3-[3-(4-fluorophenyl)-3-hydroxypropyl]-4-oxoazetidin-2-yl}benzyl)succinaminic acid]: less than 1.0 mg/mouse.
The same measure for `COc1ccc(C2C(CCC(O)c3ccc(F)cc3)C(=O)N2c2ccc(OCCCCN(C)CCS(=O)(=O)O)cc2)cc1` (stereo not shown) [II, 2-[(4-{4-[3-[3-(4-Fluorophenyl)-3-hydroxypropyl]-2-(4-methoxyphenyl)-4-oxoazetidin-1-yl]phenoxy}butyl)methylamino]ethylsulfonic acid]: greater than 0.1 mg/mouse.

The record behind these values is patent US7388004B2, “Acid-group-substituted diphenylazetidinones, process for their preparation, medicaments comprising these compounds, and their use” (Sanofi-Aventis Deutschland GmbH, priority 2002, dated 2008).
